Results from ChEMBL document CHEMBL6083280, “De Novo Discovery of a Noncovalent Cell-Penetrating Bicyclic Peptide Inhibitor Targeting SARS-CoV-2 Main Protease” (J Med Chem, 2024).
Activity calls are given as the source filed them. The rule behind the calls is not given here. Positions of bridges follow the written chain, without caps; N, C: chain ends. Residues, ends and D or L forms follow the SMILES beside them.

Assays:
[1] = Clearance in male CD-1 mouse at 4 mg/kg, iv by LC-MS/MS analysis; format: ADME, organism-based; conditions: in vivo
[2] = Metabolic stability in mouse serum assessed as half life by HPLC analysis; format: ADME, cell-free
[3] = Volume of distribution at steady state in male CD-1 mouse at 4 mg/kg, iv by LC-MS/MS analysis; format: ADME, organism-based; conditions: in vivo, read-out: Vdss
[4] = Drug uptake in human Caco-2 cells at 5 uM measured after 3 hrs by live confocal microscopic analysis; format: ADME, cell-based; conditions: caco-2, 3 h
[5] = biological target: T1, Replicase polyprotein 1ab (Severe acute respiratory syndrome coronavirus 2, UniProt P0DTD1); assay: Inhibition of N-terminal his-tagged SARS-CoV-2 Main protease expressed in Escherichia coli BL21 (DE3) using Dabcyl-TSAVLWSGFRICMK-Edans as substrate preincubated for 10 mins by microplate reader analysis
[6] = Half life in male CD-1 mouse at 4 mg/kg, iv by LC-MS/MS analysis; format: ADME, organism-based; conditions: in vivo
[7] = Drug uptake in human HeLa cells at 5 uM measured after 3 hrs by live confocal microscopic analysis; format: ADME, cell-based
[8] = Initial plasma concentration in male CD-1 mouse at 4 mg/kg, iv by LC-MS/MS analysis; format: ADME, organism-based
[9] = test system: SARS-CoV-2; assay: Antiviral activity against SARS-CoV-2 infected in human Caco-2 cells assessed as inhibition of viral infection preincubated for 1 hr followed by viral infection measured after 48 hrs by CQ1 confocal quantitative image cytometer analysis; format: functional, organism-based; conditions: for EC50: Severe acute respiratory syndrome coronavirus 2, Caco-2; for Activity: Severe acute respiratory syndrome coronavirus 2, time 49.0 hrs
[10] = test system: Caco-2; assay: (§1) Cytotoxicity against human Caco-2 cells assessed as cell viability at 100 uM incubated for 48 hrs by CCK-8 assay; format: toxicity, cell-based; conditions: caco-2, 48 h, 100 µM
[11] = AUC (0 to infinity) in male CD-1 mouse at 4 mg/kg, iv by LC-MS/MS analysis; format: ADME, organism-based; conditions: in vivo
[12] = biological target: T1, Replicase polyprotein 1ab; assay: Binding affinity to N-terminal his-tagged SARS-CoV-2 Main protease expressed in Escherichia coli BL21 (DE3) assessed as dissociation constant by ITC analysis
[13] = test system: SARS-CoV-2; assay: Antiviral activity against SARS-CoV-2; format: functional, organism-based; conditions: Severe acute respiratory syndrome coronavirus 2
[14] = as §1; format: toxicity, cell-based; conditions: Caco-2 cells
[15] = test system: SARS-CoV-2; assay: Antiviral activity against SARS-CoV-2 Omicron; format: functional, organism-based; conditions: Severe acute respiratory syndrome coronavirus 2, Omicron
[16] = biological target: Cathepsin B (Homo sapiens) (UniProt P07858); assay: Inhibition of cathepsin B (unknown origin)
[17] = biological target: Ubiquitin carboxyl-terminal hydrolase 14 (Homo sapiens) (UniProt P54578); assay: Inhibition of USP14 (unknown origin)
Sequence of Ubiquitin carboxyl-terminal hydrolase 14 (Homo sapiens) (P54578 whole entry): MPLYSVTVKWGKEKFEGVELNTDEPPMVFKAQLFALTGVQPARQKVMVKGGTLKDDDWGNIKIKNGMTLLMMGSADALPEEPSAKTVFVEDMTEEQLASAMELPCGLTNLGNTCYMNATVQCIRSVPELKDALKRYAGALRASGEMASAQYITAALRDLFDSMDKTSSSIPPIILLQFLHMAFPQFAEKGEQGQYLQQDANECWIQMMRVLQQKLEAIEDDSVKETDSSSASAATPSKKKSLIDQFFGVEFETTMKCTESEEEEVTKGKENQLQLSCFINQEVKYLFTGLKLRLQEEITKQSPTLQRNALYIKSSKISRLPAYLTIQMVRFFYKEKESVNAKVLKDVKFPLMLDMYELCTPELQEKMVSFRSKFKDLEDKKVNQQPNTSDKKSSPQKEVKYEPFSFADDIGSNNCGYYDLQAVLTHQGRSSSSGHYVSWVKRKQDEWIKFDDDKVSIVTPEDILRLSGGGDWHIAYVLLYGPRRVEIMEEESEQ

SMILES: CC(C)[C@@H]1NC(=O)[C@@H](Cc2ccc(O)cc2)NC(=O)CC[C@@H](C(N)=O)NC(=O)[C@@H]2CCCN2C(=O)[C@@H]2CCCN2C(=O)C2CSc3c(F)c(F)c(c(F)c3F)-c3c(F)c(F)c(c(F)c3F)SC[C@H](NC1=O)C(=O)N[C@@H](Cc1ccccc1)C(=O)N[C@@H](Cc1c[nH]cn1)C(=O)N[C@@H]([C@@H](C)O)C(=O)N[C@@H]([C@@H](C)O)C(=O)N[C@@H]([C@@H](C)O)C(=O)N1CCC[C@H]1C(=O)N[C@@H](Cc1ccccc1)C(=O)N2
- clearance [1]: 26.5 mL/min/kg
- half-life [2]: 8 h
- Vd [3]: 0.511 L/kg
- Drug uptake [4]: Active
- IC50 [5]: 4510 nM
- half-life [6]: 0.499 h
- Drug uptake [7]: Active
- C0 [8]: 12100 ng/mL
- EC50 [9]: 8620 nM
- Activity [10]: Non-toxic
- AUC(0-inf) [11]: 2530 ng·h/mL

SMILES: CC(C)C[C@@H]1NC(=O)[C@H](CC(N)=O)NC(=O)[C@H](Cc2ccc(O)cc2)NC(=O)CSC[C@@H](C(=O)NCC(N)=O)NC(=O)[C@H](Cc2ccccc2)NC(=O)[C@H](CCCNC(=N)N)NC(=O)[C@H](CCC(N)=O)NC(=O)[C@H](CC(N)=O)NC(=O)[C@H](Cc2c[nH]c3ccccc23)NC(=O)[C@H](CC(=O)O)NC(=O)[C@H]([C@@H](C)O)NC(=O)[C@H](CCCNC(=N)N)NC(=O)[C@H](CCC(N)=O)NC(=O)[C@H](Cc2ccccc2)NC1=O ({CH2CO}-YNLFQRTDWNQRFCG-NH2; thioether N-14)
- IC50 [5]: 250 nM
- Kd [12]: 2540 nM
- Activity [9]: inactive

SMILES: CC(C)(C)[C@H](NC(=O)C(F)(F)F)C(=O)N1C[C@H]2[C@@H]([C@H]1C(=O)N[C@H](C#N)C[C@@H]1CCNC1=O)C2(C)C
- EC50 [13]: 32.6 nM

SMILES: CC[C@H](C)[C@@H]1NC(=O)[C@H](Cc2ccc(O)cc2)NC(=O)[C@H](CO)NC(=O)[C@H](CC(C)C)NC(=O)CNC(=O)[C@H](Cc2ccc(O)cc2)NC(=O)[C@H](CO)NC(=O)[C@H](CCC(N)=O)NC(=O)[C@H](Cc2ccccc2)NC(=O)[C@@H](Cc2ccc(O)cc2)NC(=O)CSC[C@@H](C(=O)NCC(N)=O)NC(=O)CNC(=O)[C@@H]2CCCN2C1=O
- IC50 [5]: 460 nM
- Kd [12]: 2780 nM
- Activity [9]: inactive

SMILES: CC[C@H](C)[C@@H]1NC(=O)[C@@H](Cc2ccc(O)cc2)NC(=O)CSC[C@@H](C(=O)NCC(N)=O)NC(=O)[C@@H]2CCCN2C(=O)[C@H](CC(C)C)NC(=O)[C@H](CC(C)C)NC(=O)[C@H]([C@@H](C)O)NC(=O)[C@H](CC(N)=O)NC(=O)CNC(=O)[C@H](CO)NC(=O)[C@H](C)NC(=O)[C@H](Cc2ccccc2)NC(=O)[C@H](CCCNC(=N)N)NC1=O
- IC50 [5]: 250 nM
- Kd [12]: 4800 nM
- Activity [9]: inactive

SMILES: CC(C)C[C@@H]1NC(=O)[C@H](CC(N)=O)NC(=O)[C@H](Cc2ccc(O)cc2)NC(=O)CSC[C@@H](C(=O)NCC(N)=O)NC(=O)[C@H](Cc2ccc(O)cc2)NC(=O)[C@H](CCC(N)=O)NC(=O)[C@H]([C@@H](C)O)NC(=O)[C@H]([C@@H](C)O)NC(=O)[C@H](Cc2c[nH]c3ccccc23)NC(=O)[C@H](CC(=O)O)NC(=O)[C@H]([C@@H](C)O)NC(=O)[C@H](CCCNC(=N)N)NC(=O)[C@H](CCC(N)=O)NC(=O)[C@H](Cc2ccccc2)NC1=O ({CH2CO}-YNLFQRTDWTTQYCG-NH2; thioether N-14)
- half-life [2]: 1.6 h
- IC50 [5]: 500 nM
- Kd [12]: 1120 nM
- EC50 [9]: 4890 nM
- Activity [9]: inactive
- CC50 at 48 h [14]: > 100000 nM

SMILES: Cn1cnc(Cn2c(=O)[nH]/c(=N\c3cc4cn(C)nc4cc3Cl)n(Cc3cc(F)c(F)cc3F)c2=O)n1
- EC50 [15]: 220 nM

SMILES: CC(C)C[C@@H]1NC(=O)[C@H](CC(N)=O)NC(=O)[C@H](Cc2ccc(O)cc2)NC(=O)CSC[C@@H](C(=O)NCC(N)=O)NC(=O)[C@H](Cc2ccccc2)NC(=O)[C@H](CO)NC(=O)[C@H](CO)NC(=O)[C@H](CO)NC(=O)[C@H](Cc2c[nH]c3ccccc23)NC(=O)[C@H](CC(=O)O)NC(=O)[C@H](C)NC(=O)[C@H](CCCNC(=N)N)NC(=O)[C@H](CCC(N)=O)NC(=O)[C@H](Cc2ccccc2)NC1=O ({CH2CO}-YNLFQRADWSSSFCG-NH2; thioether N-14)
- IC50 [5]: 300 nM
- Kd [12]: 6730 nM
- Activity [9]: inactive

SMILES: CC(C)c1nc(CN(C)C(=O)N[C@H](C(=O)N[C@@H](Cc2ccccc2)C[C@H](O)[C@H](Cc2ccccc2)NC(=O)OCc2cncs2)C(C)C)cs1 [RITONAVIR]
- EC50 [13]: 7540 nM

SMILES: CC(C)C[C@@H]1NC(=O)[C@H](Cc2ccccc2)NC(=O)[C@@H](Cc2ccc(O)cc2)NC(=O)CSC[C@@H](C(=O)NCC(N)=O)NC(=O)CNC(=O)[C@H](Cc2ccccc2)NC(=O)[C@H]([C@@H](C)O)NC(=O)[C@H](Cc2ccc(O)cc2)NC(=O)[C@H](CCCNC(=N)N)NC(=O)[C@H](Cc2ccc(O)cc2)NC(=O)[C@@H]2CCCN2C(=O)[C@@H]2CCCN2C1=O
- IC50 [5]: 1450 nM
- Kd [12]: 4000 nM
- Activity [9]: inactive

SMILES: CC(C)C[C@H](NC(=O)OCc1ccccc1)C(=O)N[C@@H](CC1CCNC1=O)C(O)S(=O)(=O)O (stereo not given in full)
- EC50 [13]: 4500 nM

SMILES: CC(C)C[C@@H]1NC(=O)[C@H](Cc2ccccc2)NC(=O)[C@@H]2CCCN2C(=O)[C@H]([C@@H](C)O)NC(=O)[C@H]([C@@H](C)O)NC(=O)[C@H]([C@@H](C)O)NC(=O)[C@H](Cc2c[nH]cn2)NC(=O)[C@H](Cc2ccccc2)NC(=O)[C@H]([C@@H](C)O)NC(=O)[C@H](C(C)C)NC(=O)[C@@H](Cc2ccc(O)cc2)NC(=O)CSC[C@@H](C(=O)NCC(N)=O)NC(=O)[C@@H]2CCCN2C(=O)[C@@H]2CCCN2C1=O
- inhibition [16]: Active
- inhibition [17]: Active
- half-life [2]: 5.4 h
- IC50 [5]: 300 nM
- Kd [12]: 2750 nM
- EC50 [9]: 10800 nM
- Activity [9]: inactive
- CC50 at 48 h [14]: > 100000 nM

SMILES: CC(C)C[C@@H]1NC(=O)[C@H](Cc2ccc(F)c(F)c2)NC(=O)[C@@H]2CCCN2C(=O)[C@H]([C@@H](C)O)NC(=O)[C@H]([C@@H](C)O)NC(=O)[C@H]([C@@H](C)O)NC(=O)[C@H](Cc2c[nH]cn2)NC(=O)[C@H](Cc2cccc(F)c2)NC(=O)[C@H]([C@@H](C)O)NC(=O)[C@H](C(C)C)NC(=O)[C@@H](Cc2ccc(O)cc2)NC(=O)CSC[C@@H](C(=O)NCC(N)=O)NC(=O)[C@@H]2CCCN2C(=O)[C@@H]2CCCN2C1=O
- inhibition [16]: Active
- inhibition [17]: Active
- IC50 [5]: 320 nM
- EC50 [9]: > 100000 nM

SMILES: Cc1cccc(C)c1OCC(=O)N[C@@H](Cc1ccccc1)[C@@H](O)C[C@H](Cc1ccccc1)NC(=O)[C@H](C(C)C)N1CCCNC1=O [LOPINAVIR]
- EC50 [13]: 8750 nM
- Activity [10]: Toxic
